Structures are written as SMILES. Values after ≈ are worked out from the molar mass of the structure shown. Read-outs that look alike come from different tables or passages of the source.

Common to all, as to type: cell-based
Assay [1] concerns Staphylococcus epidermidis. Kind of assay: Heart Infusion Agar Dilution Method, antimicrobial activity (MIC). Particulars: pH 7.2. From the text: (§1) Heart Infusion Agar Dilution Method (pH 7.2) is used. A cephalosporin compound having the same acyl side chain corresponding to the dl-compound is used as a control. The compounds are identified as follows.
(In general: Agar dilution tests growth on a series of plates holding different concentrations.)

Assay [2] has as its system Staphylococcus aureus Smith. Described as above.
Excerpt: as §1

The next assay has as its system Escherichia coli NIHJC-2. The description is as above. From the text: (§2) Antimicrobial activities of the compounds obtained in Reference Examples 1 and 2 are as follows. Heart Infusion Agar Dilution Method (pH 7.2) is used. A cephalosporin compound having the same acyl side chain corresponding to the dl-compound is used as a control. The compounds are identified as follows.

The test system of assay [3] is Klebsiella pneumoniae Y-60. The assay is described as above.
Excerpt: as §2

Assay [4] relates to Pseudomonas aeruginosa #1. The description is as above.
Excerpt: as §2

In the next assay the test system is Proteus rettgeri KY 4289. The assay is described as above. Particulars: Providencia rettgeri, KY4289, pH 7.2.
Excerpt: as §2

In assay [5] the test system is Staphylococcus aureus 209-P. The description is as above.
Excerpt: as §2

Assay [6] relates to Klebsiella pneumoniae 8045. Described as above. The note with it: Klebsiella pneumoniae, 8045, pH 7.2, Klebsiella pneumoniae 8045.
Excerpt: as §2

In assay [7] the test system is Pseudomonas aeruginosa 145. The description is as above. The note with it: Pseudomonas aeruginosa, 145, pH 7.2, Pseudomonas aeruginosa 145.
Excerpt: as §2

A further assay concerns Serratia marcescens T-26. The assay is described as above.
Excerpt: as §2

Assay [8] deals with Escherichia coli GN2411-5. Described as above.
Excerpt: as §2

For the next assay, the system named is Proteus mirabilis 1287. The assay is described as above. Particulars: Proteus mirabilis, 1287, pH 7.2, Proteus mirabilis 1287.
Excerpt: as §2

A further assay deals with Proteus vulgaris 6897. The description is as above. The note with it: Proteus vulgaris, 6897, pH 7.2, Proteus vulgaris 6897.
Excerpt: as §2

Another assay concerns Serratia marcescens T-55. The assay is described as above.
Excerpt: as §2

The test system of a further assay is Proteus morganii KY 4298. Described as above.
Excerpt: as §2

Another assay has as its system Escherichia coli Juhl. The description is as above.
Excerpt: as §2

A further assay deals with Pseudomonas putida 264. The assay is described as above.
Excerpt: as §2

The nature of assay [9]: antimicrobial activity (stated in words).
Excerpt: as §2

The mark [10] stands for this setting: Escherichia coli, NIHJC2, pH 7.2, Escherichia coli NIHJC-2, read-out: MIC.
Setting [11] is: Klebsiella pneumoniae, Y60, pH 7.2, Klebsiella pneumoniae Y-60, read-out: MIC.
The mark [12] stands for this setting: Pseudomonas aeruginosa, pH 7.2, Pseudomonas aeruginosa #1, read-out: MIC.
[13] abbreviates: Serratia marcescens, T26, pH 7.2, Serratia marcescens T-26, read-out: MIC.
Setting [14] is: Escherichia coli, GN2411, pH 7.2, Escherichia coli GN2411-5, read-out: MIC.
Setting [15] is: Morganella morganii, KY4298, pH 7.2, Proteus morganii KY 4298, read-out: MIC.
Where [16] appears, read: Escherichia coli, pH 7.2, Escherichia coli Juhl, read-out: MIC.
Where [17] appears, read: Staphylococcus aureus 209-P, pH 7.2.
[18] abbreviates: Serratia marcescens T-55, pH 7.2.

On to `CO/N=C(\C(=O)N[C@@H]1C(=O)N2C(C(=O)O)=C(COC(C)=O)CS[C@H]12)c1csc(N)n1` [C, reference compound], for which the MIC – broadly, the lowest concentration found to suppress growth – in assay [1] is 1.56 µg/mL (≈ 3.43 µM); in [2] (Staphylococcus aureus Smith, pH 7.2, read-out: MIC), 1.56 µg/mL (≈ 3.43 µM); in the assay on Escherichia coli NIHJC-2 (setting [10]), 0.1 µg/mL (≈ 0.22 µM); in [3] (setting [11]), 0.05 µg/mL (≈ 0.11 µM); in [4] (setting [12]) it was 6.25 µg/mL (≈ 13.7 µM); with Proteus rettgeri KY 4289, no more than 0.01 µg/mL. Moreover, the MIC in assay [5] (Staphylococcus aureus, 209P, pH 7.2, Staphylococcus aureus 209-P, read-out: MIC) was 0.78 µg/mL (≈ 1.71 µM); in assay [6], no more than 0.01 µg/mL; in assay [7], 50 µg/mL (≈ 110 µM); in the assay with Serratia marcescens T-26 (setting [13]) it was 0.78 µg/mL (≈ 1.71 µM); in assay [8] (setting [14]) it was 0.05 µg/mL (≈ 0.11 µM); in the assay on Proteus mirabilis 1287, 0.02 µg/mL (≈ 0.0439 µM). Besides, the MIC against Proteus vulgaris 6897 was no more than 0.01 µg/mL; with Serratia marcescens T-55 (Serratia marcescens, T55, pH 7.2, Serratia marcescens T-55, read-out: MIC), 0.1 µg/mL (≈ 0.22 µM); with Proteus morganii KY 4298 (setting [15]), 0.05 µg/mL (≈ 0.11 µM); in the assay on Escherichia coli Juhl (setting [16]) it was 0.05 µg/mL (≈ 0.11 µM); in the assay on Pseudomonas putida 264 (Pseudomonas putida, 264, pH 7.2, Pseudomonas putida 264, read-out: MIC), 0.1 µg/mL (≈ 0.22 µM).
On to `CO/N=C(\C(=O)N[C@@H]1C(=O)N2C(C(=O)O)=CCC[C@H]12)c1csc(N)n1` [A, (+)-cis-7-[2-(2-amino-4-thiazolyl)-2-syn-methoxyiminoacetamido]-1-azabicyclo[4,2,0]oct-2-en-8-on-2-carboxylic acid], for which the antimicrobial activity result in assay [9] was “strong antimicrobial activity”. The MIC in assay [2] (Staphylococcus aureus Smith, pH 7.2) was 6.25 µg/mL (≈ 17.1 µM); with Escherichia coli NIHJC-2 (Escherichia coli NIHJC-2, pH 7.2), 0.02 µg/mL (≈ 0.0547 µM); in [3] (Klebsiella pneumoniae Y-60, pH 7.2), 0.02 µg/mL (≈ 0.0547 µM); in [4] (Pseudomonas aeruginosa #1, pH 7.2) it was 6.25 µg/mL (≈ 17.1 µM); with Proteus rettgeri KY 4289, no more than 0.006 µg/mL; in assay [5] (setting [17]) it was 3.12 µg/mL (≈ 8.54 µM). Besides, the MIC in [6] was no more than 0.006 µg/mL; in the assay with Serratia marcescens T-26 (Serratia marcescens T-26, pH 7.2) it was 0.2 µg/mL (≈ 0.547 µM); in assay [8] (Escherichia coli GN2411-5, pH 7.2), 0.01 µg/mL (≈ 0.0274 µM); against Proteus mirabilis 1287, 0.01 µg/mL (≈ 0.0274 µM); against Proteus vulgaris 6897 it was no more than 0.006 µg/mL; against Serratia marcescens T-55 (setting [18]), 0.02 µg/mL (≈ 0.0547 µM). Moreover, the MIC amounted to 0.05 µg/mL (≈ 0.137 µM) in the assay on Proteus morganii KY 4298 (setting [15]) and 0.02 µg/mL (≈ 0.0547 µM) with Escherichia coli Juhl (Escherichia coli Juhl, pH 7.2).
`CO/N=C(\C(=O)N[C@@H]1C(=O)N2C(C(=O)O)=C[C@@H](C)C[C@H]12)c1csc(N)n1` [B, (-)-cis-7β-[2-(2-amino-4-thiazolyl)-2-syn-methoxyiminoacetamido]-4α-methyl-1-azabicyclo[4,2,0]oct-2-en-8-on-2-carboxylic acid]: the antimicrobial activity entry in [9] is “strong antimicrobial activity”. The MIC in [2] (Staphylococcus aureus, pH 7.2, Staphylococcus aureus Smith, read-out: MIC) was 6.25 µg/mL (≈ 16.5 µM); in the assay with Escherichia coli NIHJC-2 (setting [10]) it was 0.02 µg/mL (≈ 0.0527 µM); in assay [3] (setting [11]) it was 0.02 µg/mL (≈ 0.0527 µM); in assay [4] (setting [12]), 25 µg/mL (≈ 65.9 µM); against Proteus rettgeri KY 4289, no more than 0.01 µg/mL; in assay [5] (setting [17]), 1.56 µg/mL (≈ 4.11 µM). Also, the MIC was no more than 0.01 µg/mL in assay [6]; 100 µg/mL (≈ 264 µM) in assay [7]; 0.4 µg/mL (≈ 1.05 µM) in the assay on Serratia marcescens T-26 (setting [13]); no more than 0.01 µg/mL in assay [8] (setting [14]); no more than 0.01 µg/mL in the assay with Proteus mirabilis 1287; no more than 0.01 µg/mL in the assay on Proteus vulgaris 6897. In addition, the minimum inhibitory concentration (MIC) was 0.05 µg/mL (≈ 0.132 µM) with Serratia marcescens T-55 (setting [18]); 0.02 µg/mL (≈ 0.0527 µM) with Proteus morganii KY 4298 (Proteus morganii KY 4298, pH 7.2); 0.02 µg/mL (≈ 0.0527 µM) in the assay with Escherichia coli Juhl (setting [16]); 0.05 µg/mL (≈ 0.132 µM) in the assay with Pseudomonas putida 264 (Pseudomonas putida 264, pH 7.2).

The values are drawn from patent US4316958A, “Process for producing optically active cephalosporin analogs” (Kyowa Hakko Kogyo Co., Ltd., priority 1979, dated 1982).
